The source of these data is patent EP1683523A1, “2-Phenylquinoxalines as inhibitors for MPP1” (MAX-PLANCK-GESELLSCHAFT ZUR FÖRDERUNG DER WISSENSCHAFTEN …, priority 2005, dated 2006).

SMILES strings stand for the structures.

As usually defined, the IC50 is the concentration that gives 50% inhibition. High values mean lower potency, low ones higher potency. For orientation: EC50 means the midpoint of the concentration-response curve.

Experiment [1] has as its target T1, His-tagged human MPP1 construct (Aa 1-533) (Homo sapiens, UniProt Q96Q89).
T1 construct: a His-tagged human MPP1 construct (Aa 1-533); His
T1 sequence (Q96Q89 1-533): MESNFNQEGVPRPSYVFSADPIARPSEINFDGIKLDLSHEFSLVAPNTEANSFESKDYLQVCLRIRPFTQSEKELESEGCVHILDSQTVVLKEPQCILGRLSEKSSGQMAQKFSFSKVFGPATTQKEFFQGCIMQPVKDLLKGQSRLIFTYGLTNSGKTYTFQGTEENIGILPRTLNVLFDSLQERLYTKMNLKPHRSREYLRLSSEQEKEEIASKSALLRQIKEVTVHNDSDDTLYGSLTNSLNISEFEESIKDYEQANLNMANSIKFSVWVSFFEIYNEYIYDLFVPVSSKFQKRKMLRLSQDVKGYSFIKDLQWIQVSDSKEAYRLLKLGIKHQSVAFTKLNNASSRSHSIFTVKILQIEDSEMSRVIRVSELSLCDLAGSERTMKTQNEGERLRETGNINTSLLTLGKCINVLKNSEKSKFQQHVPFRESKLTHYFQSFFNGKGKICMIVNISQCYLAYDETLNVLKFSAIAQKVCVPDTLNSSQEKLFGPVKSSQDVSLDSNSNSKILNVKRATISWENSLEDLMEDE
Description: Malachite-green based in vitro microtubule-stimulated ATPase assay (potency study). Format: biochemical. The following applies: microtubule-stimulated ATPase activity, DMSO as solvent control, Fig. 1. As for the experimental part: The 2-phenylquinoxaline derivatives were measured be means of a malachite-green based (Itaya K. and UI, M. (1966), A new micromethod for the colorimetric determination of inorganic phosphate; Clin. Chim. Acta, 14: 362 - 366) in vitro ATPase assay. For this assay the microtubule-stimulated ATPase activity of a His-tagged human MPP1 construct (Aa 1-533) in the presence of small molecules or DMSO as a solvent control were measured. These studies are done in 384-well plates in which individual compounds of a large compound collection are transferred into each well using a liquid handling robot.
The potency of 5-chloro-2-(3,4-dichlorophenyl)-7-(trifluoromethyl)quinoxaline as a representative example of the 2-phenylquinoxaline derivatives of general formula (I) was determined by measuring MPP1's microtubule-stimulated ATPase activity in vitro in the presence of 5-chloro-2-(3,4-dichlorophenyl)-7-(trifluoromethyl)-quinoxaline or DMSO as a solvent control. For these studies a malachite green assay which allows the quantification of free phosphate (Pi) in solution was used.

In experiment [2] the test system is cellular processes known to be independent of MPP1 function. Description: Specificity in vivo: effect on cellular processes independent of MPP1. The format is cell-based. Conditions: golgi/lysosome localization, actin/microtubule cytoskeleton in interphase, protein synthesis, S to M-phase cell cycle progression, wound healing. From the text:
For the specificity in vivo studies, the effect of 5-chloro-2-(3,4-dichlorophenyl)-7-(trifluoromethyl)quinoxaline on cellular processes known to be independent of MPP1 function, e.g. golgi/lysosome localization, actin/microtubule cytoskeleton in interphase, protein synthesis, S to M-phase cell cycle progression, and wound healing was investigated.

For experiment [3], the system named is Hela S3 cells. Nature of the experiment: Cellular phenotype: binucleate phenotype. The format is cell-based. The following applies: Fig. 3.
The target in experiment [4] is T2, Mklp2 (Homo sapiens, UniProt O95235).
T2 sequence (O95235 1-890): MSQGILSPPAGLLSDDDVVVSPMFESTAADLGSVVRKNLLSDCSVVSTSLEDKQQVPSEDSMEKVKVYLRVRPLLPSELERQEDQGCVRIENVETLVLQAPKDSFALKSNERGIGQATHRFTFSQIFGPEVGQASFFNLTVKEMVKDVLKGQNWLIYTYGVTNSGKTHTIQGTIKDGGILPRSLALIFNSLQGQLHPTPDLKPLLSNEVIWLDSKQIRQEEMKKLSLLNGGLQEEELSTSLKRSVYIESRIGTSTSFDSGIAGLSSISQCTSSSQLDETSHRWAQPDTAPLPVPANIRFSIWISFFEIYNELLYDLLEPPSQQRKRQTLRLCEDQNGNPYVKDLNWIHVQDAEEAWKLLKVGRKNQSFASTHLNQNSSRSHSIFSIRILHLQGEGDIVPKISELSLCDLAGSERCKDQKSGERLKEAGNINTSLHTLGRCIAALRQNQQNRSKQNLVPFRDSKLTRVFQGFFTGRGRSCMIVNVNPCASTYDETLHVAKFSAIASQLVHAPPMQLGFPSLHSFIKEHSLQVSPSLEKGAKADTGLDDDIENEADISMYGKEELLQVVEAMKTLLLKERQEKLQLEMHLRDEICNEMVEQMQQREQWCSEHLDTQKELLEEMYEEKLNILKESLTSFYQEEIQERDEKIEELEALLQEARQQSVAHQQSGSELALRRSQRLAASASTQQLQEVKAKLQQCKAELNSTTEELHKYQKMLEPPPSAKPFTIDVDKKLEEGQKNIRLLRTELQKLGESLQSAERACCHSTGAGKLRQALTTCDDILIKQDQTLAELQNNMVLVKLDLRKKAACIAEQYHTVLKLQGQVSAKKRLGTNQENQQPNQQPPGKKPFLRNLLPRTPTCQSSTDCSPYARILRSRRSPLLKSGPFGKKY
Description: Malachite-green in vitro microtubule-stimulated ATPase assay (specificity). Conditions: Fig. 2. The format is biochemical. As for the experimental part:
(§1) The specificity of 5-chloro-2-(3,4-dichlorophenyl)-7-(trifluoromethyl)quinoxaline was determined by measuring its effect on the microtubule-stimulated in vitro ATPase activities of the kinesins Eg5, Kif4, Mklp1, and Mklp2.

Experiment [5] concerns the target T3, Kif4 (Homo sapiens, UniProt O95239).
T3 sequence (O95239 1-1232): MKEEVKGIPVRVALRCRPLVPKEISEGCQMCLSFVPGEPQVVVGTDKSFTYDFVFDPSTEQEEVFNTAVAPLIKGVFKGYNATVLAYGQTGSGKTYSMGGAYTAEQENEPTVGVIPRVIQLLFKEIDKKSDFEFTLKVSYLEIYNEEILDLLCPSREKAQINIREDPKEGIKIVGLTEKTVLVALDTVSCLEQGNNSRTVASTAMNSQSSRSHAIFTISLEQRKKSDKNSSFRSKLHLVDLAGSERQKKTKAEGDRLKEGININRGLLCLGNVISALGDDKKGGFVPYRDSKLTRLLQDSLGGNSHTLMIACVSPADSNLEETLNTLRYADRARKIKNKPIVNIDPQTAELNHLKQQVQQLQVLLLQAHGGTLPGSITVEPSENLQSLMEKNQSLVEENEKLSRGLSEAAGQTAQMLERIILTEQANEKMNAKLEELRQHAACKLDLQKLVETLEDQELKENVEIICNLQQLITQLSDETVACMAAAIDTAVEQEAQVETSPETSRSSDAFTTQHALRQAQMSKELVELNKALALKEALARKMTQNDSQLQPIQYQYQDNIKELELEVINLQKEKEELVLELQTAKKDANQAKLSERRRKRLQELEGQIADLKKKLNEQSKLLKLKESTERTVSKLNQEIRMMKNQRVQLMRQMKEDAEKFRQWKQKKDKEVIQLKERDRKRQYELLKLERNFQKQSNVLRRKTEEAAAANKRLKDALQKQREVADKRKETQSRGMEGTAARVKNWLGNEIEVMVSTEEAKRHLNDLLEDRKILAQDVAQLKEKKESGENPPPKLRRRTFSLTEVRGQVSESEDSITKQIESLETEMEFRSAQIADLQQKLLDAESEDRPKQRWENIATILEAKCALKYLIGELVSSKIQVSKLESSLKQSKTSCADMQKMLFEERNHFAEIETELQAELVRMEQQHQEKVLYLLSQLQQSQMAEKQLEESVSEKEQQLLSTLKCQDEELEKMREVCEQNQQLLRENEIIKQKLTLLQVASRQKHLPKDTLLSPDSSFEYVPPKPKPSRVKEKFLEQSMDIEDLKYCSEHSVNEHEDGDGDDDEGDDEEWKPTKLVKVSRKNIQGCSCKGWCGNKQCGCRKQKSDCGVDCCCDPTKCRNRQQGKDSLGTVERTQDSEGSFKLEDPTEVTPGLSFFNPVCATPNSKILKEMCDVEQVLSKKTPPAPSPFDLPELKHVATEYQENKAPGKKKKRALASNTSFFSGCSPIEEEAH
The experiment is described as above. Format: biochemical. Conditions: Fig. 2. The procedure:
as §1

Experiment [6] deals with T4, Eg5 (Homo sapiens, UniProt P52732).
T4 sequence (P52732 1-1056): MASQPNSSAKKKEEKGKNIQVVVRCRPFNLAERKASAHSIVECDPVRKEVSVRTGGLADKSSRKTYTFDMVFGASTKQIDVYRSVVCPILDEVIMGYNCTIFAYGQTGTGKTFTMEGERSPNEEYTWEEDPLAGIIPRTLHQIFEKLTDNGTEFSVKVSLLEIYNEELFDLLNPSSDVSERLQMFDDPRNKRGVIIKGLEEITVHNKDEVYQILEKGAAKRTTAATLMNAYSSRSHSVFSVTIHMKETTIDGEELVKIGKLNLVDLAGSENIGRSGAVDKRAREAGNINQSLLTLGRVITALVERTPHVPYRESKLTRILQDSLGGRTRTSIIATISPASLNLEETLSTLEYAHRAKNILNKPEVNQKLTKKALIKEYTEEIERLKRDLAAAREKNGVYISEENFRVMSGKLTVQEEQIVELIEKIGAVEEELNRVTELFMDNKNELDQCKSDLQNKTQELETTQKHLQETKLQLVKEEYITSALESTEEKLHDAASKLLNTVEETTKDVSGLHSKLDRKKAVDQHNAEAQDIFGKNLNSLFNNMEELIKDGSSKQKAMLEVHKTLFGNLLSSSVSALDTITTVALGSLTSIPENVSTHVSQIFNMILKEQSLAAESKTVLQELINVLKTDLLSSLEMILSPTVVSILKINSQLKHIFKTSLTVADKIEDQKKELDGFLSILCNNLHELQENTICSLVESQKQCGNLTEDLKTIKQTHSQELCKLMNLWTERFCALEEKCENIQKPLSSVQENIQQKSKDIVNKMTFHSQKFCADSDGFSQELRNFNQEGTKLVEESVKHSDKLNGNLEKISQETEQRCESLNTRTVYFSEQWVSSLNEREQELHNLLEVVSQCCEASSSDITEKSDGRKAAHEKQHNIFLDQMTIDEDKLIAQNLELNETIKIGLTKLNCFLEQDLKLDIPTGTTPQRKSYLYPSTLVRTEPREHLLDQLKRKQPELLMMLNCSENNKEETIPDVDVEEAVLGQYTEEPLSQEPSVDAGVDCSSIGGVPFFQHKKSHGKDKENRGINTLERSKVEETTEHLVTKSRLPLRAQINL
The experiment is described as above. The format is biochemical. The following applies: Fig. 2. The procedure: as §1

Experiment [7] deals with T5, Mklp1 (Homo sapiens, UniProt Q02241).
T5 sequence (Q02241 1-960): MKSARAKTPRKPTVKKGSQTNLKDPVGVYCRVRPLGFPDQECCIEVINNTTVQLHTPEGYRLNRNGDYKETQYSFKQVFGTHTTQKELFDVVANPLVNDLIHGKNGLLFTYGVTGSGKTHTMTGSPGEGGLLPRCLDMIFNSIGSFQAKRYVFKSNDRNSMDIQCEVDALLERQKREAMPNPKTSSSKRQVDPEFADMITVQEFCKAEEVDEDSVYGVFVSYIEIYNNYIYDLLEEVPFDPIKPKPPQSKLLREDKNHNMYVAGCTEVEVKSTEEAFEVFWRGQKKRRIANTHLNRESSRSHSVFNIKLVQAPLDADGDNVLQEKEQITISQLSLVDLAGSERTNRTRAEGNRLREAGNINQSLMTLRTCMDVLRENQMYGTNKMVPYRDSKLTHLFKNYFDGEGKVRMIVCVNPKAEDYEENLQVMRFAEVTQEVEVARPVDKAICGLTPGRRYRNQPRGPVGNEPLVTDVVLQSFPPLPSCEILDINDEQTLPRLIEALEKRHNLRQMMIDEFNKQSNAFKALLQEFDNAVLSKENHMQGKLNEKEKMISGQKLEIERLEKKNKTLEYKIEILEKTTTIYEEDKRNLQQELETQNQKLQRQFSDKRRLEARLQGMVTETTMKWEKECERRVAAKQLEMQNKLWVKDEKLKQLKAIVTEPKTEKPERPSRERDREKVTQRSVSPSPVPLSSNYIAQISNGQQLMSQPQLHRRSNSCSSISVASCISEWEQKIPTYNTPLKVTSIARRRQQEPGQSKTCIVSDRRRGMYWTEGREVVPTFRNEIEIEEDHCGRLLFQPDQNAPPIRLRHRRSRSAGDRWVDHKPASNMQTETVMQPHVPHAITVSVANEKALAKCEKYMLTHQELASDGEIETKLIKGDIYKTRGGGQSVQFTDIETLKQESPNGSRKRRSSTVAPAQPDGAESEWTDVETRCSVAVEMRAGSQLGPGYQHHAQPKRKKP
Described as above. The format is biochemical. Conditions: Fig. 2. As for the experimental part:
as §1

The test system of experiment [8] is BSC-1 (African green monkey) cells. Nature of the experiment: Cellular phenotype: count of binucleated cells. Format: cell-based. Conditions: Chlorocebus sabaeus; synchronized BSC-1 cells, released from thymidine-block for three hours, treated for 18 hours; at least 200 cells counted per concentration; read-out: EC50, induction of a binucleate phenotype in BSC-1. As for the experimental part: Concerning the study the function of MPP1 in living cells, it was tested whether 5-chloro-2-(3,4-dichlorophenyl)-7-(trifluoromethyl)quinoxaline induces a phenotype similar to the one obtained by RNAi-mediated depletion of MPP1. For these studies we treated synchronized BSC-1 (African green monkey) cells with 5-chloro-2-(3,4-dichlorophenyl)-7-(trifluoromethyl)quinoxaline or DMSO as a solvent control.
BSC-1 cells were released from thymidine-block for three hours and then treated with 50µM or the indicated concentrations of 5-chloro-2-(3,4-dichlorophenyl)-7-(trifluoromethyl)quinoxaline for 18 hours. Treated cells were fixed with formaledehyde-containing buffer and the DNA and microtubule cytoskeleton were visualized with Hoechst and FITC-labled anti-tubulin antibody, respectively. The number of binucleated cells was determined by manual counting of at least 200 cells per concentration.

Compound `FC(F)(F)c1cc(Cl)c2ncc(-c3ccc(Cl)c(Cl)c3)nc2c1` [5-chloro-2-(3,4-dichlorophenyl)-7-(trifluoromethyl)quinoxaline] displayed an IC50 in experiment [1] of about 40 µM. The “effect on the tested cellular processes” value in experiment [2] is “no observable effect”. Besides, in experiment [3], the “binucleate phenotype in Hela S3 cells” value is on record as “induces a binucleate phenotype”. Further, in experiment [4], the “effect on the in vitro ATPase activity of Mklp2” value is reported as “no significant effect”. Further, the “effect on the in vitro ATPase activity of Kif4” value in experiment [5] is “no significant effect”. The “effect on the in vitro ATPase activity of Eg5” value in experiment [6] is recorded as “no significant effect”. In addition, the “effect on the in vitro ATPase activity of Mklp1” value in experiment [7] is “no significant effect”. For the same compound, the EC50 in experiment [8] is about 50 µM.
